The record followed here is paper PMC11378297, “Discovery and Profiling of New Multimodal Phenylglycinamide Derivatives as Potent Antiseizure and Antinociceptive Drug Candidates” (ACS Chemical Neuroscience, 2024).

Series [1] has as its system mature-BDNF (mBDNF) expression. Briefly: mBDNF expression in hippocampus and cortex of PTZ-kindled mice (Western blot). The settings on record: 80 mg/kg repeated, p < 0.01 vs PTZ kindling control. Type of series: in vivo, mouse. From the text: However, there are also few reports showing opposite findings.[51],[52] […] No changes in the expression of the nerve growth factor (NGF) were observed (Figure 6D–F).
Figure 6 Changes in mature-BDNF (mBDNF) expression in hippocampus (A) and cortex (C) and in proNGF expression in hippocampus (D) and cortex (F) with representative immunoblots, together with total protein amount visualized by the stain-free technique (B,E). Data are shown as means of relative expressions + SD (n = 8). Statistical significance was evaluated by one-way ANOVA followed by Tukey’s post hoc test: **p < 0.01 (GraphPad Prism 8.4.3).
The Western Blot method was used to assess the expression of proNGF and mBDNF in the mouse brain and hippocampal tissues. Using a bead homogenizer (Bead Ruptor Elite, Omni International, USA), the cortical and hippocampal regions of the mouse brain were weighted and homogenized at a ratio of 9 μL/mg in 2% SDS supplemented with a cocktail of protease (Thermo Scientific, Walthman, MA, USA) and phosphatase inhibitors (Sigma-Aldrich, St. Louis, MO, USA). Samples were then centrifuged at 10,000g for 10 min at 4 °C after being denatured for 10 min at 95 °C. […] One-way ANOVA with Tukey’s post hoc test was utilized to examine changes in the relative expression of the proteins that were evaluated.
On the technique in general: A western blot detects proteins with antibodies after separation by electrophoresis.

Series [2] in a line: thermogravimetric analysis and differential scanning calorimetry. Type of series: physicochemical. From the text:
Bearing in mind that the active pharmaceutical ingredients are often exposed to heat upon a final dosage form manufacturing (e.g., granulation, hot melt-extrusion, and coating), high thermal stability of the compound is a favorable feature predisposing the molecule (R)-32 for a further development. Another property that may considerably slow down the process of bringing a new molecule to the market is limited solubility in water. Thus, a simple approach to verify if it would be possible to overcome this drawback by the physical modification of its crystalline structure was also undertaken. […] The melting endotherm of crystalline (R)-32 had the onset ca. 115 °C and the minimum at 126 °C. After a simple thermal treatment such as cooling of the melt, the amorphous form of (R)-32 was obtained. Its glass transition temperature was relatively low, ca. 30 °C, which means that (R)-32 should be coprocessed with excipients of antiplasticizing properties to develop enabling formulations stable at ambient storage conditions.
A Mettler Toledo thermogravimetric analysis/SDTA 851^e apparatus calibrated with indium, zinc, and aluminum was used. Its accuracy was equal to 10^–6 g. The samples were placed in an open aluminum crucible. The measurements were performed in Ar 5.0 (50 mL/min). The temperature ranged from 25 to 400 °C. The constant heating rate of 10 °C/min was applied. […]

For the compound `CC(=O)N[C@@H](C(=O)N1CCN(c2cccc(OC(F)(F)F)c2)CC1)c1ccccc1` [(R)-32, (R)-N-(2-Oxo-1-phenyl-2-(4-(3-(trifluoromethoxy)phenyl)piperazin-1-yl)ethyl)acetamide], the “mBDNF protein expression in the hippocampus (PTZ kindling-induced overexpression)” value in series [1] was “reversed the overexpression”. Also, the “thermally stable while heating up to (weight loss noted, TGA)” value in series [2] (10 °C/min) is 190 °C. For the same compound, the “glass transition temperature of the amorphous form (DSC)” value in series [2] (after cooling of the melt) was “ca. 30 °C”.
